We go through 15 compounds from patent US10588935B2, “FC receptor (FcRn) binding peptides and uses thereof” (THE BRIGHAM AND WOMEN'S HOSPITAL, INC., priority 2013, dated 2020).

Structures are written as SMILES. Like-named read-outs stand apart in the source and are kept apart here. Bridge positions count the residues as written; N and C are the ends. Peptide text beside a SMILES is read from it.

In the assay the target is T1, soluble human FcRn (Homo sapiens, UniProt P55899).
T1 construct: Soluble human FcRn was expressed and purified by Biogen-Idec as previously described (29)
Description: SPR (Biacore) affinity of peptides for immobilized soluble human FcRn. Format: binding. As for the experimental part: SPR analyses were conducted using a Biacore 3000 or T100 instrument. Research-grade CM5 sensor chips and all coupling reagents for immobilization were purchased from Biacore. All proteins were cross-linked to the dextran surface of a CM5 sensor chip by standard amine coupling chemistry as recommended by Biacore. […] Binding experiments were performed at pH 6.0 or 7.4 using 50 mM phosphate, 100 mM sodium chloride and 0.01% surfactant P20. […] Bound albumin protein was then allowed to dissociate from the chip for 5 minutes with running buffer. Any remaining albumin was removed from the chip with a 60 second injection (2 cycles) of pH 8.0 Tris-HCl regeneration buffer (1 M Tris pH 8.0) at 25 μL/min flow rate. The binding responses recorded near the end of the association phase were plotted as a function of concentration. Equilibrium dissociation constants (KD), were derived from sensorgrams using the 1:1 binding model of BIAevaluation software 4.1.

Setting [1] is: Table 2, pH 6, immobilized shFcRn, data fit steady state or 2 site, read-out: Kd, pH 6** Biacore.
The mark [2] stands for this setting: Table 1, pH 6, shFcRn immobilized on the sensor chip, steady state fit, read-out: Kd, pH 6** Biacore.
Setting [3] is: Table 2, pH 7.4, data only 100 uM, therefore Kd may be higher, read-out: Kd, pH 7.4 Biacore.

T1 sequence (P55899 24-297 limits assumed): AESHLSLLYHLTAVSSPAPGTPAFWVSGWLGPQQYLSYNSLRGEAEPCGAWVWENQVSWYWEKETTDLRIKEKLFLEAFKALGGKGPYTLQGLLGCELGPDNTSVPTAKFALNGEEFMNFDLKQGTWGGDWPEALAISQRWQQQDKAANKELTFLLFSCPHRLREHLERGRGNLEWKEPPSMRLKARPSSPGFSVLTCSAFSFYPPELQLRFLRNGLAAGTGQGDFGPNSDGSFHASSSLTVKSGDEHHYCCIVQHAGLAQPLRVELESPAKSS
T1 sequence (P61769 21-119 partner): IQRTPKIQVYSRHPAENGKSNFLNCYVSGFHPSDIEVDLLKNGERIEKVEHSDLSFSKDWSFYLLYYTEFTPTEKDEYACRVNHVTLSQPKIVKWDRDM

On to `CSCC[C@H](NC(=O)[C@H](Cc1ccc(O)cc1)NC(C)=O)C(=O)N[C@H](C(=O)N[C@H]1CSSC[C@@H](C(=O)N[C@@H](CCC(=O)O)C(=O)N[C@@H](Cc2ccc(O)cc2)C(N)=O)NC(=O)[C@H](CO)NC(=O)[C@H](Cc2ccccc2)NC(=O)CNC(=O)[C@H](CC(=O)O)NC(=O)[C@H](CC(=O)O)NC(=O)[C@H](Cc2c[nH]c3ccccc23)NC(=O)[C@H](CCCCN)NC1=O)[C@@H](C)O` [SYN1164] (Ac-YMTCKWDDGFSCEY-NH2; disulfide 4-12 (inferred)), for which, under setting [1], the Kd amounted to 0.57 ± 0.02 µM.

`CSCC[C@H](NC(=O)[C@@H](NC(C)=O)C(C)C)C(=O)N[C@@H](Cc1c[nH]cn1)C(=O)N[C@H]1CSSC[C@@H](C(=O)N[C@@H](CC(=O)O)C(=O)N[C@@H](CCC(N)=O)C(=O)NCC(N)=O)NC(=O)[C@H](CCCCN)NC(=O)[C@H](Cc2ccccc2)NC(=O)[C@H](CCC(=O)O)NC(=O)[C@H](CCC(=O)O)NC(=O)[C@H](CC(=O)O)NC(=O)[C@H](Cc2c[nH]c3ccccc23)NC(=O)[C@H](C)NC1=O` [SYN1217] (Ac-VMHCAWDEEFKCDQG-NH2; disulfide 4-12): the dissociation constant Kd under setting [1] is above 20 µM. For the same compound, under “Table 2, pH 7.4, data only 100 uM, therefore Kd may be higher”, the “Kd, pH 7.4 Biacore” value is on record as “no bind”.

For the compound `CC(=O)N[C@@H](CCCNC(=N)N)C(=O)N[C@@H](Cc1ccc(O)cc1)C(=O)N[C@@H](Cc1ccccc1)C(=O)N[C@@H]1C(=O)N[C@@H]([C@@H](C)O)C(=O)N[C@@H](CCCCN)C(=O)N[C@@H](Cc2c[nH]c3ccccc23)C(=O)N[C@@H](CCCCN)C(=O)N[C@@H](Cc2c[nH]cn2)C(=O)NCC(=O)N[C@@H](Cc2c[nH]c3ccccc23)C(=O)N[C@H](C(=O)N[C@@H](CCC(=O)O)C(=O)N[C@@H](CCC(=O)O)C(=O)N[C@H](C(N)=O)C(C)C)CSSC1(C)C` [SYN1555], under setting [2], the Kd was above 100 µM.

In the case of `CSCC[C@H](NC(=O)[C@H](Cc1ccc(O)cc1)NC(C)=O)C(=O)N[C@H](C(=O)N[C@H]1CSSC[C@@H](C(=O)N[C@@H](CCC(=O)O)C(=O)N[C@@H](Cc2ccc(O)cc2)C(=O)N[C@H](C(N)=O)C(C)C)NC(=O)[C@H](CO)NC(=O)[C@H](Cc2ccccc2)NC(=O)[C@H](C)NC(=O)[C@H](CC(=O)O)NC(=O)[C@H](CC(=O)O)NC(=O)[C@H](Cc2c[nH]c3ccccc23)NC(=O)[C@H](CCCCN)NC1=O)[C@@H](C)O` [SYN1151] (Ac-YMTCKWDDAFSCEYV-NH2; disulfide 4-12 (inferred)), the “Kd Ratio 7.4/6.0” value (Table 2) was found to be 25. Further, the Kd under setting [1] was 1.5 ± 0.22 µM.

`CC(=O)N[C@@H](CCCNC(=N)N)C(=O)N[C@@H](Cc1ccc(O)cc1)C(=O)N[C@@H](Cc1ccccc1)C(=O)N[C@H]1CSSC[C@@H](C(=O)N[C@@H](CCC(=O)O)C(=O)N[C@@H](CCC(=O)O)C(=O)N[C@H](C(N)=O)C(C)C)NC(=O)[C@H](Cc2c[nH]c3ccccc23)NC(=O)CNC(=O)[C@H](Cc2c[nH]cn2)NC(=O)[C@H](CCCCN)NC(=O)[C@H](C)NC(=O)[C@H](CCCCN)NC(=O)[C@H]([C@@H](C)O)NC1=O` [SYN1547] (Ac-RYFCTKAKHGWCEEV-NH2; disulfide 4-12): the equilibrium dissociation constant (Kd) under setting [2] is above 100 µM.

Consider `CSCC[C@H](NC(=O)[C@@H](NC(C)=O)C(C)C)C(=O)N[C@@H](Cc1c[nH]cn1)C(=O)N[C@H]1CSSC[C@@H](C(=O)N[C@@H](CC(=O)O)C(=O)N[C@@H](Cc2ccc(O)cc2)C(=O)NCC(N)=O)NC(=O)[C@H](CCCCN)NC(=O)[C@H](Cc2ccccc2)NC(=O)[C@H](CCC(=O)O)NC(=O)[C@H](CCC(=O)O)NC(=O)[C@H](CC(=O)O)NC(=O)[C@H](Cc2c[nH]c3ccccc23)NC(=O)[C@H](Cc2ccccc2)NC1=O` [SYN1259] (Ac-VMHCFWDEEFKCDYG-NH2; disulfide 4-12 (inferred)), for which the “Kd Ratio 7.4/6.0” value (Table 2) is reported as 132. Moreover, the Kd under setting [3] came out at 12 µM.

As to `CSCC[C@H](NC(=O)[C@H](Cc1ccc(O)cc1)NC(C)=O)C(=O)N[C@H](C(=O)N[C@H]1CSSC[C@@H](C(=O)N[C@@H](CCC(=O)O)C(=O)N[C@@H](Cc2ccc(O)cc2)C(=O)N[C@H](C(N)=O)C(C)C)NC(=O)[C@H](CO)NC(=O)[C@H](Cc2ccccc2)NC(=O)CNC(=O)[C@H](CC(=O)O)NC(=O)[C@H](C)NC(=O)[C@H](Cc2c[nH]c3ccccc23)NC(=O)[C@H](CCCCN)NC1=O)[C@@H](C)O` [SYN1149] (Ac-YMTCKWADGFSCEYV-NH2; disulfide 4-12 (inferred)), for the setting “Table 2”, the “Kd Ratio 7.4/6.0” value amounted to 7.8. Moreover, the Kd under setting [3] amounted to 12 µM.

In the case of `CSCC[C@H](NC(=O)[C@H](Cc1ccc(O)cc1)NC(C)=O)C(=O)N[C@H](C(=O)N[C@H]1CSSC[C@@H](C(=O)N[C@@H](CCC(=O)O)C(=O)N[C@@H](Cc2ccc(O)cc2)C(=O)N[C@H](C(N)=O)C(C)C)NC(=O)[C@H](CO)NC(=O)[C@H](Cc2ccccc2)NC(=O)CNC(=O)[C@H](CC(=O)O)NC(=O)[C@H](CC(=O)O)NC(=O)[C@H](Cc2c[nH]c3ccccc23)NC(=O)[C@H](C)NC1=O)[C@@H](C)O` [SYN1147] (Ac-YMTCAWDDGFSCEYV-NH2; disulfide 4-12 (inferred)), under “Table 2”, the “Kd Ratio 7.4/6.0” value is on record as 56.

With `CSCC[C@H](NC(=O)[C@H](Cc1ccc(O)cc1)NC(C)=O)C(=O)N[C@H](C(=O)N[C@H]1CSSC[C@@H](C(=O)N[C@@H](CCC(=O)O)C(=O)N[C@@H](Cc2ccc(O)cc2)C(=O)N[C@@H](C)C(N)=O)NC(=O)[C@H](CO)NC(=O)[C@H](Cc2ccccc2)NC(=O)CNC(=O)[C@H](CC(=O)O)NC(=O)[C@H](CC(=O)O)NC(=O)[C@H](Cc2c[nH]c3ccccc23)NC(=O)[C@H](CCCCN)NC1=O)[C@@H](C)O` [SYN1156] (Ac-YMTCKWDDGFSCEYA-NH2; disulfide 4-12 (inferred)), the “Kd Ratio 7.4/6.0” value (Table 2) was found to be 38. Besides, under setting [3], the Kd was 22 µM.

Regarding `CSCC[C@H](NC(=O)[C@@H](NC(C)=O)C(C)C)C(=O)N[C@@H](Cc1c[nH]cn1)C(=O)N[C@H]1CSSC[C@@H](C(=O)N[C@@H](CC(=O)O)C(=O)N[C@@H](CCC(N)=O)C(=O)NCC(N)=O)NC(=O)[C@H](CCCCN)NC(=O)[C@H](Cc2ccccc2)NC(=O)[C@H](C)NC(=O)[C@H](CCC(=O)O)NC(=O)[C@H](CC(=O)O)NC(=O)[C@H](Cc2c[nH]c3ccccc23)NC(=O)[C@H](Cc2ccccc2)NC1=O` [SYN1216] (Ac-VMHCFWDEAFKCDQG-NH2; disulfide 4-12 (inferred)), for the setting “Table 2”, the “Kd Ratio 7.4/6.0” value came to 52.

With `CC(=O)N[C@@H](CCCNC(=N)N)C(=O)N[C@@H](Cc1ccc(O)cc1)C(=O)N[C@@H](Cc1ccccc1)C(=O)N[C@H]1CSSC[C@@H](C(=O)N[C@@H](CCC(=O)O)C(=O)N[C@@H](CCC(=O)O)C(=O)N[C@H](C(N)=O)C(C)C)NC(=O)[C@H](C)NC(=O)CNC(=O)[C@H](Cc2c[nH]cn2)NC(=O)[C@H](CCCCN)NC(=O)[C@H](Cc2c[nH]c3ccccc23)NC(=O)[C@H](CCCCN)NC(=O)[C@H]([C@@H](C)O)NC1=O` [SYN1551] (Ac-RYFCTKWKHGACEEV-NH2; disulfide 4-12), the dissociation constant Kd under setting [2] is above 200 µM.

In the case of `CSCC[C@H](NC(=O)[C@H](Cc1ccc(O)cc1)NC(C)=O)C(=O)N[C@H](C(=O)N[C@H]1CSSC[C@@H](C(=O)N[C@@H](CCC(=O)O)C(=O)N[C@@H](Cc2ccc(O)cc2)C(=O)N[C@H](C(N)=O)C(C)C)NC(=O)[C@H](CO)NC(=O)[C@H](Cc2ccccc2)NC(=O)CNC(=O)[C@H](C)NC(=O)[C@H](CC(=O)O)NC(=O)[C@H](Cc2c[nH]c3ccccc23)NC(=O)[C@H](CCCCN)NC1=O)[C@@H](C)O` [SYN1150] (Ac-YMTCKWDAGFSCEYV-NH2; disulfide 4-12 (inferred)), the “Kd Ratio 7.4/6.0” value (Table 2) is on record as 2.2.

As to `CSCC[C@H](NC(=O)[C@@H](NC(C)=O)C(C)C)C(=O)N[C@@H](CCCCN)C(=O)N[C@H]1CSSC[C@@H](C(=O)N[C@@H](CCCNC(=N)N)C(=O)N[C@@H](C)C(=O)N[C@@H](Cc2ccccc2)C(N)=O)NC(=O)[C@H](CC(C)C)NC(=O)[C@H](Cc2ccccc2)NC(=O)[C@H](CCC(=O)O)NC(=O)[C@H](CCC(=O)O)NC(=O)[C@H](CC(=O)O)NC(=O)[C@H](Cc2c[nH]c3ccccc23)NC(=O)[C@H](Cc2c[nH]c3ccccc23)NC1=O` [SYN1536] (Ac-VMKCWWDEEFLCRAF-NH2; disulfide 4-12 (inferred)), the “Kd Ratio 7.4/6.0” value (Table 2) was found to be 61. Moreover, the Kd is, setting by setting: under setting [1], 0.031 µM; under setting [3], 1.1 µM.

Turning to `CSCC[C@H](NC(=O)[C@H](Cc1ccc(O)cc1)NC(C)=O)C(=O)N[C@@H](C)C(=O)N[C@H]1CSSC[C@@H](C(=O)N[C@@H](CCC(=O)O)C(=O)N[C@@H](Cc2ccc(O)cc2)C(=O)N[C@H](C(N)=O)C(C)C)NC(=O)[C@H](CO)NC(=O)[C@H](Cc2ccccc2)NC(=O)CNC(=O)[C@H](CC(=O)O)NC(=O)[C@H](CC(=O)O)NC(=O)[C@H](Cc2c[nH]c3ccccc23)NC(=O)[C@H](CCCCN)NC1=O` [SYN1146] (Ac-YMACKWDDGFSCEYV-NH2; disulfide 4-12 (inferred)), the “Kd Ratio 7.4/6.0” value (Table 2) is listed as 34.4. Moreover, the Kd under setting [3] came out at 8.6 µM.

Take `CSCC[C@@H]1NC(=O)[C@H](CCC(=O)O)NC(=O)[C@H](CCC(=O)O)NC(=O)[C@H](CC(=O)O)NC(=O)[C@H](Cc2c[nH]c3ccccc23)NC(=O)[C@H](Cc2c[nH]c3ccccc23)NC(=O)[C@@H](NC(=O)[C@H](CCCCN)NC(=O)[C@H](CCSC)NC(=O)[C@@H](NC(C)=O)C(C)C)CSSC[C@@H](C(=O)N[C@@H](CCC(=O)O)C(=O)N[C@@H](C)C(=O)N[C@@H](Cc2ccccc2)C(N)=O)NC(=O)[C@H](CC(C)C)NC1=O` [SYN1538] (Ac-VMKCWWDEEMLCEAF-NH2; disulfide 4-12 (inferred)): the “Kd Ratio 7.4/6.0” value (Table 2) turned out to be 71.
